Entries after “also recorded” stand apart in the source; their conditions may differ. Read-outs that look alike come from different tables or passages of the source.
Key:
[1] = Absorbance and fluorescence of phenol-benzoate derivatives in PBS 7.4; format: physicochemical; conditions: for λ maxem [nm] / λ maxex [nm] / ΦFluorescence / ε 400 nm: PBS 7.4; for Relative fluorescence emission: PBS 7.4, relative to 6a; for fluorescence emission intensity relative to parent benzoate without chlorine: 7a vs 6a, 9a vs 8a
Procedure: General. […] Fluorescence quantum yield was determined using Hamamatsu Quantaurus-QY.
To evaluate the substituent effect, numerous phenol-benzoate derivatives with acceptor substituents at ortho and para positions of the phenol were synthesized, and their fluorescent emission in PBS 7.4 were measured. The most significant effect was obtained when an acceptor was incorporated at the ortho position of the phenol. Following broad screen of electron-withdrawing groups, we chose to focus on the chlorine, methyl-acrylate and acrylonitrile substituents. It was previously shown that in order to enable the chemiexcitation mechanism under physiological conditions, a chlorine substituent is introduced at the ortho position of phenolic ring. This electron-withdrawing substituent decreases the pKa of the phenol released after cleavage of the protecting group and thereby enriches the relative concertation of the phenolate species in physiological pH. The methyl-acrylate and acrylonitrile substituents induced the highest increase in fluorescence emission of their corresponded phenol-benzoates. The absorbance and fluorescence spectra of selected phenol-benzoate derivatives are shown in FIG. 11, and their molecular structure and spectroscopic parameters are summarized Table 9.

[2] = Chemiluminescence of adamantylidene-dioxetane luminophores 5b-9b in PBS 7.4; format: physicochemical; conditions: for λ maxCL [nm] / chemiluminescence emission signal relative to dioxetane 5b: PBS 7.4; for Relative CL emission: relative to 5b; for chemiluminescence emission signal upon deprotonation: water / PBS 7.4; for ΦCL(H20) %: aqueous, 5b as reference
[3] = reference compound, known value (Trofimov et al., 1996; Edwards et al., 1994); cited from earlier work
β-galactosidase = conditions: 1 μM, 1.5 units/mL β-galactosidase; for chemiluminescence emission signal relative to Probe 5: PBS pH 7.4 (10% DMSO), room temp
Procedure: Next, we measured the light chemiluminescence emission of the probes, as a function of time, in the presence and in the absence of β-galactosidase.
Commercially available Emerald-II™ enhancer (10%) was added to Probe 5 in the presence of β-galactosidase (in PBS 7.4) and its chemiluminescence emission was compared to that of Probe 6.

HEK293-WT cells = assay: Chemiluminescence microscopy imaging, HEK293-WT control cells; format: cell-based; conditions: 5 μM, 20 min incubation (Study 2)
Procedure: (§1) Images were obtained following 20 min incubation with cell culture medium containing Probe 3 (5 μM).
(§2) Images were obtained following 20 min incubation with cell culture medium containing Probe 7 (5 μM). Images were taken by the LV200 Olympus-microscope using 60× objective and 40s exposure time.
(§3) Chemiluminescence microscopy imaging of β-galactosidase activity. Chemiluminescence images were acquired using Olympus LV200 inverted microscope fitted with an EMCCD camera (Hamamatsu C9100-13). HEK293 LacZ stable cells (amsbio SC003) and HEK293-WT cells (control) were grown on 35 mm glass bottom petri dishes at 37° C. for 24 h. Cell culture medium was changed to Molecular Probes® Live Cell Imaging Solution containing 5 μM of Probe 3. Cells were incubated for another 20 minutes at 37° C. Thereafter, images were recorded with 20 minutes exposure time.
as §3, with “Chemiluminescence” for “Chemiluminescence microscopy imaging of β-galactosidase activity. Chemiluminescence”, “of probe 4.” for “of Probe 3.”, “with 40 seconds” for “with 20 minutes”

HEK293-LacZ stable cells = assay: Chemiluminescence microscopy imaging of β-galactosidase activity in HEK293-LacZ cells; format: cell-based; conditions: 5 μM, 20 min incubation, 60× objective, seconds exposure (Study 2)
Procedure: as §1, §2, §3
To improve the image quality, the HEK293-LacZ cells were fixed by using 4% formaldehyde and permeabilized with 0.1% Triton X-100. The cells were then incubated with Probe 3 and imaged by the microscope using a 60× objective (NA 1.42).
Chemiluminescence images were acquired using Olympus LV200 inverted microscope fitted with an EMCCD camera (Hamamatsu C9100-13). […] Thereafter, images were recorded with 40 seconds exposure time.

Aqueous solubility = format: physicochemical
[4] = Chemiluminescence detection of hydrogen peroxide by Probe 10; format: biochemical
Procedure: (§4) On the left—a comparison between light emission observed by Probe 10 (1 mM; left vial) to that observed by Luminol (1 mM; right vial) upon incubation with hydrogen peroxide under aqueous conditions at pH 10. Probe 12 is a chemiluminescence for detection of GSH.
(§5) FIGS. 15A-15B show (15A) total light emitted from Probe 10 (100 μM), Probe 11 (10 μM) and Probe 12 (10 μM) in the presence of hydrogen peroxide (1 mM), alkaline phosphatase (AP) (1.5 EU/ml) or glutathione (1 mM). Measurements were conducted in PBS (100 mM), pH 7.4, with 10% DMSO at RT; and (15B) total light emitted from Probe 10 (500 μM), Probe 11 (500 μM) and Probe 12 (10 μM) in PBS (100 mM), pH 7.4 with 10% DMSO over a period of 1 h, with various concentration of the corresponding stimulus. A detection limit (blank control+3 SD) was determined for each probe.
(§6) The activation of our chemiluminescence probes is based on removal of a protecting group from the phenolic moiety. Therefore, different phenol-protecting groups could be incorporated as triggering substrates for various analytes/enzymes (Redy-Keisar et al., 2014). […] Probe 10 was equipped with boronic-ester as a substrate for hydrogen peroxide, Probe 11 with phosphate group as a substrate for alkaline-phosphatase and Probe 12 with dinitro-benzene-sulfonyl group as a substrate for GSH (FIG. 14). The probes were prepared with an acrylic acid or methyl acrylate substituent at the ortho position of the phenolic oxygen. […] As described above, the probes decompose upon their activation to release the excited state of the coresponed benzoate. The acrylate substituent efficiently increases the emissive nature of the released benzoate to produce strong light emission, clearly visible to the naked eye.
(§7) To evaluate the sensitively and selectivity of Probes 10, 11 and 12 to detect their corresponded analyte/enzyme, we determined the probes' limit of detection (LOD). […] Probe 10 could detect hydrogen peroxide with an LOD value of 30 nM, Probe 11 could detect alkaline-phosphatase with an LOD value of 3.9 μU/ml and Probe 12 could detect GSH with an LOD value of 1.7 μM.

[5] = tested on: alkaline phosphatase (AP); assay: Chemiluminescence detection of alkaline phosphatase by Probe 11; format: biochemical
Procedure: as §4
as §5, with “[…];” for “Measurements were conducted in PBS (100 mM), pH 7.4, with 10% DMSO at RT;”
as §6, §7

[6] = Chemiluminescence detection of glutathione by Probe 12; format: biochemical
Procedure: as §5
The activation of our chemiluminescence probes is based on removal of a protecting group from the phenolic moiety. Therefore, different phenol-protecting groups could be incorporated as triggering substrates for various analytes/enzymes (Redy-Keisar et al., 2014). […] Probe 10 was equipped with boronic-ester as a substrate for hydrogen peroxide, Probe 11 with phosphate group as a substrate for alkaline-phosphatase and Probe 12 with dinitro-benzene-sulfonyl group as a substrate for GSH (FIG. 14). The probes were prepared with an acrylic acid or methyl acrylate substituent at the ortho position of the phenolic oxygen. […]
To evaluate the sensitively and selectivity of Probes 10, 11 and 12 to detect their corresponded analyte/enzyme, we determined the probes' limit of detection (LOD). […]

[7] = 500 μM probe, PBS (100 mM) pH 7.4, 10% DMSO, 1 h, blank control+3 SD

COC(=O)c1cccc(O)c1 [Benzoate 4a, reference compound]
λ maxem [nm] [1]: 470 nm
λ maxex [nm] [1]: 290 nm
Relative fluorescence emission [1]: do not present any measurable fluorescence; also recorded: negligible

COC(=O)c1cccc(O)c1Cl [Benzoate 5a, reference compound]
λ maxem [nm] [1]: 470 nm
λ maxex [nm] [1]: 290 nm
Relative fluorescence emission [1]: do not present any measurable fluorescence; also recorded: Negligible

COC(=O)/C=C/c1ccc(C(=O)OC)cc1O [Benzoate 6a]
ΦFluorescence [1]: 0.5%
ε 400 nm [1]: 1200
λ maxem [nm] [1]: 550 nm
λ maxex [nm] [1]: 400 nm
Relative fluorescence emission [1]: 1

COC(=O)/C=C/c1ccc(C(=O)OC)c(Cl)c1O [Benzoate 7a]
fluorescence emission intensity relative to parent benzoate without chlorine [1]: about 10 fold
ΦFluorescence [1]: 5.2%
ε 400 nm [1]: 7400
λ maxem [nm] [1]: 550 nm
λ maxex [nm] [1]: 400 nm
Relative fluorescence emission [1]: 10.6

COC(=O)c1ccc(/C=C/C#N)c(O)c1 [Benzoate 8a]
ΦFluorescence [1]: 7%
ε 400 nm [1]: 2200
λ maxem [nm] [1]: 525 nm
λ maxex [nm] [1]: 400 nm
Relative fluorescence emission [1]: 4.7

COC(=O)c1ccc(/C=C/C#N)c(O)c1Cl [Benzoate 9a]
fluorescence emission intensity relative to parent benzoate without chlorine [1]: about 4 fold
ΦFluorescence [1]: 29.8%
ε 400 nm [1]: 7700
λ maxem [nm] [1]: 525 nm
λ maxex [nm] [1]: 400 nm
Relative fluorescence emission [1]: 18.0

COC1(c2cccc(O)c2Cl)OOC12C1CC3CC(C1)CC2C3 (stereo not shown) [Phenol 5b, reference compound]
λ maxCL [nm] [2]: 470 nm
Relative CL emission [2]: 1
chemiluminescence emission signal upon deprotonation [2]: extremely weak
ΦCL(H20) % [3]: 3.2×10^−3%

COC(=O)/C=C/c1ccc(C2(OC)OOC23C2CC4CC(C2)CC3C4)cc1O (stereo not shown) [Phenol 6b]
chemiluminescence emission signal relative to dioxetane 5b [2]: about 700 fold
λ maxCL [nm] [2]: 540 nm
ΦCL(H20) % [2]: 2.3%
Relative CL emission [2]: 724
chemiluminescence emission signal upon deprotonation [2]: remarkably strong chemiluminescence emission signal

COC(=O)/C=C/c1ccc(C2(OC)OOC23C2CC4CC(C2)CC3C4)c(Cl)c1O (stereo not shown) [Phenol 7b]
λ maxCL [nm] [2]: 540 nm
ΦCL(H20) % [2]: 2.5%
Relative CL emission [2]: 780
chemiluminescence emission signal upon deprotonation [2]: remarkably strong chemiluminescence emission signal

COC1(c2ccc(/C=C/C#N)c(O)c2)OOC12C1CC3CC(C1)CC2C3 (stereo not shown) [Phenol 8b]
λ maxCL [nm] [2]: 525 nm
ΦCL(H20) % [2]: 7.4%
Relative CL emission [2]: 2295
chemiluminescence emission signal upon deprotonation [2]: remarkably strong chemiluminescence emission signal

COC1(c2ccc(/C=C/C#N)c(O)c2Cl)OOC12C1CC3CC(C1)CC2C3 (stereo not shown) [Phenol 9b]
chemiluminescence emission signal relative to dioxetane 5b [2]: about 3000 fold
λ maxCL [nm] [2]: 525 nm
ΦCL(H20) % [2]: 9.8%
Relative CL emission [2]: 3043
chemiluminescence emission signal upon deprotonation [2]: remarkably strong chemiluminescence emission signal

COC(=O)/C=C/c1ccc(C2(OC)OOC23C2CC4CC(C2)CC3C4)cc1OCc1ccc(O[C@@H]2OC(CO)[C@H](O)C(O)C2O)cc1 (stereo partly shown) [Probe 6]
chemiluminescence emission signal relative to Probe 5 (β-galactosidase): about 500 fold

COC(=O)/C=C/c1ccc(C2(OC)OOC23C2CC4CC(C2)CC3C4)c(Cl)c1OCc1ccc(O[C@@H]2OC(CO)[C@H](O)C(O)C2O)cc1 (stereo partly shown) [Probe 7]
chemiluminescence signal of HEK293-WT cells (HEK293-WT cells): No chemiluminescence signal at all was observed
chemiluminescence images of HEK293-LacZ cells (HEK293-LacZ stable cells): high quality chemiluminescence images; also recorded: excellent chemiluminescence cell images

COC1(c2ccc(/C=C/C#N)c(OCc3ccc(O[C@@H]4OC(CO)[C@H](O)C(O)C4O)cc3)c2Cl)OOC12C1CC3CC(C1)CC2C3 (stereo partly shown) [Probe 9]
chemiluminescence emission signal relative to Probe 5 with Emerald-II™ enhancer (β-galactosidase; PBS 7.4 (10% DMSO)): more than 8 fold
chemiluminescence emission signal relative to Probe 5 (β-galactosidase): about 1800 fold

COC1(c2ccc(/C=C/C(=O)O)c(B3OC(C)(C)C(C)(C)O3)c2)OOC12C1CC3CC(C1)CC2C3 (stereo not shown) [Probe 10]
aqueous solubility (Aqueous solubility): increased significantly
LOD for hydrogen peroxide [4, 7]: 30 nM
luminescence upon reaction with analyte ([4]; 1 mM, pH 10): bright green luminescence
selectivity towards analyte of choice ([4]; vs alkaline phosphatase and glutathione, physiological conditions): very good selectivity

COC1(c2ccc(/C=C/C(=O)O)c(OP(=O)(O)O)c2)OOC12C1CC3CC(C1)CC2C3 (stereo not shown) [Probe 11]
aqueous solubility (Aqueous solubility): increased significantly
LOD for alkaline-phosphatase [5, 7]: 3.9 μU/ml
luminescence upon reaction with enzyme ([5]; 1 mM, pH 10): bright green luminescence
selectivity towards analyte of choice ([5]; vs hydrogen peroxide and glutathione, physiological conditions): very good selectivity

COC(=O)/C=C/c1ccc(C2(OC)OOC23C2CC4CC(C2)CC3C4)cc1OCc1ccc(NS(=O)(=O)c2ccc([N+](=O)[O-])cc2[N+](=O)[O-])cc1 (stereo not shown) [Probe 12]
LOD for GSH ([6]; 10 μM probe, PBS (100 mM) pH 7.4, 10% DMSO, 1 h, blank control+3 SD): 1.7 µM
selectivity towards analyte of choice ([6]; vs hydrogen peroxide and alkaline phosphatase, physiological conditions): very good selectivity
aqueous solubility (Aqueous solubility): relatively moderate aqueous solubility
applicable concentration range (Aqueous solubility; aqueous): 1 to 10 µM

— patent US11931429B2, “Chemiluminescent probes for diagnostics and in vivo imaging” (RAMOT AT TEL-AVIV UNIVERSITY LTD., priority 2016, dated 2024)
